Measured values published in patent US20080009418A1, “Selective Inhibitors” (Alchemia LTD., priority 2004, published 2008).

Assays:
[1] = target: T1, Human Melanocortin (MC3) (Homo sapiens, UniProt P41968); experiment: Radioligand binding, human melanocortin MC3 membranes, FlashPlate, [125I]-NDP-αMSH; details: compound at 10 μM; [125I]-NDP-αMSH, human MC3 membranes
T1 construct: purchased Perkin Elmer Biosignal
How it was run: (§1)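 Cloned human receptor membranes were coated onto FlashPlate wells and incubated with radioligand and compound (added from a 0.5 mM DMSO daughter plate) for 1 hour at room temperature in the dark. Scintillation counting gave percent inhibition, with DMSO defining total and reference ligand defining non-specific binding.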

[2] = target: T2, Human neuropeptide Y (NPY-Y1) (Homo sapiens, UniProt P25929); experiment: Radioligand binding, human neuropeptide Y NPY-Y1 membranes, FlashPlate, [125I]-PYY; details: compound at 10 μM; [125I]-PYY, human NPY-Y1 membranes
T2 construct: purchased Perkin Elmer Biosignal
T2 sequence (P25929 1-384): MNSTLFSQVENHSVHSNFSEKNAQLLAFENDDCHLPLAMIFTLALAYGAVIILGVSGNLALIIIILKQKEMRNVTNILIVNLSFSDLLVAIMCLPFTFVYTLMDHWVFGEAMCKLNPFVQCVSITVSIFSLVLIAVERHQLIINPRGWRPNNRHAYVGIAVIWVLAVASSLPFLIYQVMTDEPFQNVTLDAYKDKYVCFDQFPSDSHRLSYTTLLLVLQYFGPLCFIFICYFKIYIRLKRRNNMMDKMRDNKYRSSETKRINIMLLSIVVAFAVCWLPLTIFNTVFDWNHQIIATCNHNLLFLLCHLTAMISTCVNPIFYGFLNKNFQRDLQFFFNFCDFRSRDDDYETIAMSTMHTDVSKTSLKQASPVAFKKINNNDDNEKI
How it was run: as §1

[3] = target: T3, Human opioid (ORL1) (Homo sapiens, UniProt P41146); experiment: Radioligand binding, human opioid ORL1 membranes, FlashPlate, [125I]-Nociceptin; details: compound at 10 μM; [125I]-Nociceptin, human ORL1 membranes; 10 µM
T3 construct: purchased Perkin Elmer Biosignal
How it was run: as §1

[4] = target: T4, Mouse urotensin (mUR2) (Mus musculus, UniProt Q8VIH9); experiment: Radioligand binding, mouse urotensin mUR2 membranes, FlashPlate, [125I]-Urotensin II; details: compound at 10 μM; [125I]-Urotensin II, mouse mUR2 membranes
T4 construct: purchased Perkin Elmer Biosignal
T4 sequence (Q8VIH9 1-385): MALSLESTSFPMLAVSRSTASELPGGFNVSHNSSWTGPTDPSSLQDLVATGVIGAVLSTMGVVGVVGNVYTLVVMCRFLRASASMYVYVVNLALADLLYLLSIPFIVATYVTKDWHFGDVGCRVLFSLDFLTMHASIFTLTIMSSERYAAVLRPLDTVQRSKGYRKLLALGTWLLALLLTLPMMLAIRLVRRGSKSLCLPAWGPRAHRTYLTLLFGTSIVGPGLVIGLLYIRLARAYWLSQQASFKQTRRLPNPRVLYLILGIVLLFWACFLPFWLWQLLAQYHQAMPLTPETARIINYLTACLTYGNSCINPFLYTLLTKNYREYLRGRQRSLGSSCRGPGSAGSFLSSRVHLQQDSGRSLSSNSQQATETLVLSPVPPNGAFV
How it was run: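 Cloned mouse urotensin (mUR2) receptor membranes from Perkin Elmer Biosignal were immobilized in FlashPlate microplates using a proprietary coating. Each well got 19.5 μl buffer, then 0.5 μl of DMSO, reference ligand, or compound. Adding 5 μl of [125I]-Urotensin II, diluted to 5× final concentration in binding buffer, started binding. Plates were sealed with TopSeal-A and incubated 1 hour at room temperature in the dark. Wells were counted for 30 seconds each on a TopCount after a 60-second delay, and percentage inhibition was calculated.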

[5] = target: T5, Human melanin-concentrating hormone (MCH1) (Homo sapiens, UniProt Q99705); experiment: Radioligand binding, human melanin-concentrating hormone MCH1 membranes, FlashPlate, [125I]-S36057; details: compound at 10 μM, [125I]-S36057, human MCH1 membranes
T5 construct: purchased Perkin Elmer Biosignal
How it was run: as §1

[6] = target: T6, Human neurokinin (NK1) (Homo sapiens, UniProt P25103); experiment: Radioligand binding, human neurokinin NK1 membranes, filtration, [125I]-Substance P; details: compound at 10 μM; [125I]-Substance P, human NK1 membranes
T6 construct: purchased Perkin Elmer Biosignal
How it was run: (§2)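 Filtration binding on cloned human receptor membranes (1 Unit/well), [125I]-Substance P for NK1 and [3H]-Diprenorphine for KOP, 1 h at room temperature. Filters PEI-presoaked, washed with cold 50 mM Tris-HCl pH 7.4, counted by scintillation; percent inhibition calculated, reference ligand defining non-specific binding.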

[7] = target: T7, Human melanocortin (MC5) (Homo sapiens, UniProt P33032); experiment: Radioligand binding, human melanocortin MC5 membranes, FlashPlate, [125I]-NDP-αMSH; details: compound at 10 μM, [125I]-NDP-αMSH, human MC5 membranes
T7 construct: purchased Perkin Elmer Biosignal
How it was run: as §1

[8] = target: T8, Human μ-opioid (MOP) (Homo sapiens, UniProt P35372); experiment: Radioligand binding, human μ-opioid (MOP) membranes, FlashPlate, [3H]-Naloxone; details: compound at 10 μM; [3H]-Naloxone, human MOP membranes; 10 µM
T8 construct: purchased Perkin Elmer Biosignal
How it was run: as §1

[9] = target: T9, Human Melanocortin (MC4) (Homo sapiens, UniProt P32245); experiment: Radioligand binding, human melanocortin MC4 membranes, FlashPlate, [125I]-NDP-αMSH; details: compound at 10 μM; [125I]-NDP-αMSH, human MC4 membranes; 10 µM
T9 construct: purchased Perkin Elmer Biosignal
How it was run: as §1

[10] = target: T10, Human κ-Opioid (KOP) (Homo sapiens, UniProt P41145); experiment: Radioligand binding, human κ-opioid (KOP) membranes, filtration, [3H]-Diprenorphine; details: compound at 10 μM; [3H]-Diprenorphine, human KOP membranes
T10 construct: purchased Perkin Elmer Biosignal
How it was run: as §2

[11] = target: T11, Human δ-opioid (DOP) (Homo sapiens, UniProt P41143); experiment: Radioligand binding, human δ-opioid (DOP) membranes, FlashPlate, [3H]-Bremazocine; details: compound at 10 μM; [3H]-Bremazocine, human DOP membranes
T11 construct: purchased Perkin Elmer Biosignal
How it was run: as §1

T10 sequence (P41145 whole entry): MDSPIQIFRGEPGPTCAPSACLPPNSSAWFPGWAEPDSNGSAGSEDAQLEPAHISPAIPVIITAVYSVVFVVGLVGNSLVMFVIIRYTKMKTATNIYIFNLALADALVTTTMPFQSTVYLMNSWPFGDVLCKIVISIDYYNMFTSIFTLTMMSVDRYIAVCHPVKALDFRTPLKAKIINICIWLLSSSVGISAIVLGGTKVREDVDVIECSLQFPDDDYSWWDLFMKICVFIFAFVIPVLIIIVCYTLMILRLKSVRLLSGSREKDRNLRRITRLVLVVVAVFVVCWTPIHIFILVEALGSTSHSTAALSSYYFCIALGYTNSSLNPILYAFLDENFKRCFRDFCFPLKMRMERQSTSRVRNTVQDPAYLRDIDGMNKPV
T3 sequence (P41146 whole entry): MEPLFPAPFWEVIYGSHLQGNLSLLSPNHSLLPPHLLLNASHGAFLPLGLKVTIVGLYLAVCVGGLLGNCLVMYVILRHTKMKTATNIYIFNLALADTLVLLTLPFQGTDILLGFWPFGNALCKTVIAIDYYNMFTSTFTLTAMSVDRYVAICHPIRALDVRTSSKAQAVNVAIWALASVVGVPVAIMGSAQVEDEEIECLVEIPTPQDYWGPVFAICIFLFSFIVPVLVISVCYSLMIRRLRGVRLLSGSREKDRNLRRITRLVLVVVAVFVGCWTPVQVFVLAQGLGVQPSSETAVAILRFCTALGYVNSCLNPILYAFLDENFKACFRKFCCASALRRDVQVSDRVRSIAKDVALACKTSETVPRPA
T9 sequence (P32245 whole entry): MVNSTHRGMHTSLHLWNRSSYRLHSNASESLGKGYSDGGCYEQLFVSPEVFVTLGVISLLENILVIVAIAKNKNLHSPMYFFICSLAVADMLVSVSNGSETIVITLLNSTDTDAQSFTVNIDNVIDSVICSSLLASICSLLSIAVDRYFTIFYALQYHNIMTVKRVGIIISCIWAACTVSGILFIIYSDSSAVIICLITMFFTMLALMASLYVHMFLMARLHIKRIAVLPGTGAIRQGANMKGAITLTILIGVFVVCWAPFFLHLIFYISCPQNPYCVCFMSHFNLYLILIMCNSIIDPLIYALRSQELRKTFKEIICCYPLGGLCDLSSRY
T7 sequence (P33032 whole entry): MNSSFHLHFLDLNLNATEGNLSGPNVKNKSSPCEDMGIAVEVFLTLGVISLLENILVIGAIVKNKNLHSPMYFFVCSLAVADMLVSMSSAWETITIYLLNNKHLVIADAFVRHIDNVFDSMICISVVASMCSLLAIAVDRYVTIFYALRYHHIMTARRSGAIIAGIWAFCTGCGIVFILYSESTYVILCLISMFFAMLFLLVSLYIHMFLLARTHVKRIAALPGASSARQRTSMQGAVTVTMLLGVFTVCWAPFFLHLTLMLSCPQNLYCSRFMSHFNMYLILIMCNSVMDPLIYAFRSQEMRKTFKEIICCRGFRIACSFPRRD
T11 sequence (P41143 whole entry): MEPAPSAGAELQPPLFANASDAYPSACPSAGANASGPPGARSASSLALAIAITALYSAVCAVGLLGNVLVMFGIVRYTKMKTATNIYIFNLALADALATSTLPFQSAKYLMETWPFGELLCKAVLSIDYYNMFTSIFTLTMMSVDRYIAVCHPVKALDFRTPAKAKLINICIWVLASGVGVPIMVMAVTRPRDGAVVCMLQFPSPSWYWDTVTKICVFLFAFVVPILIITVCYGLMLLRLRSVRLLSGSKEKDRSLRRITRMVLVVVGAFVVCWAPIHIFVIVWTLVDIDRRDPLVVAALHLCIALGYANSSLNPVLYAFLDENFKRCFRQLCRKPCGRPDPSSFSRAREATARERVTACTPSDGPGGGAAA
T6 sequence (P25103 whole entry): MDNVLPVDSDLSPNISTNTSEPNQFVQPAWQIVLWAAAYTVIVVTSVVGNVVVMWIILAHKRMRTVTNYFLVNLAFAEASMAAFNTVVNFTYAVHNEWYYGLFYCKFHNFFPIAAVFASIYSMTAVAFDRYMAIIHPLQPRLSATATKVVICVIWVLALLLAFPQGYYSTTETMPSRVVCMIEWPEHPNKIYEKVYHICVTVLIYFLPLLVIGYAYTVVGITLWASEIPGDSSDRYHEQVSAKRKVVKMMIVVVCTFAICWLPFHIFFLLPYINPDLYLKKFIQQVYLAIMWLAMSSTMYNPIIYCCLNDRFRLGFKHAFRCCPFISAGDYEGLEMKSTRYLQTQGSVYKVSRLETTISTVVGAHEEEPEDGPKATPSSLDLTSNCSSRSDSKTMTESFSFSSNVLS
T1 sequence (P41968 whole entry): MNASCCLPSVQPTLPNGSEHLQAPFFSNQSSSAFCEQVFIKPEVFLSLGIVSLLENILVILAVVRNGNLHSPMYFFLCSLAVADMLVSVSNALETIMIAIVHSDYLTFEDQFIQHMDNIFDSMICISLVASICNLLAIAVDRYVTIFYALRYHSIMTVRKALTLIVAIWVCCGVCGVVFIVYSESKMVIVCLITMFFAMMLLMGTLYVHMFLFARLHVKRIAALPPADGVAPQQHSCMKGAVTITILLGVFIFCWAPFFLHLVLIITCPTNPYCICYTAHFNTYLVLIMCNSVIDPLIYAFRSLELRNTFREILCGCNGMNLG
T5 sequence (Q99705 whole entry): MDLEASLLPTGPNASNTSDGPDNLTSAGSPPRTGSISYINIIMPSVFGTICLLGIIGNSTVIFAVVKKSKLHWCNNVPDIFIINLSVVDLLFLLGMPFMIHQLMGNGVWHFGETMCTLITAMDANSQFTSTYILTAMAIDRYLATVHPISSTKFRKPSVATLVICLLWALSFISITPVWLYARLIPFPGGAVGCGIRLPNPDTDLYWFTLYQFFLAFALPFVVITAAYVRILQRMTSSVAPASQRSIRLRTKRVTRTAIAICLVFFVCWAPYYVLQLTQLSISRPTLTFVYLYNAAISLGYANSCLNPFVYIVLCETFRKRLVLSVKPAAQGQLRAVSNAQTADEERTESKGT
T8 sequence (P35372 whole entry): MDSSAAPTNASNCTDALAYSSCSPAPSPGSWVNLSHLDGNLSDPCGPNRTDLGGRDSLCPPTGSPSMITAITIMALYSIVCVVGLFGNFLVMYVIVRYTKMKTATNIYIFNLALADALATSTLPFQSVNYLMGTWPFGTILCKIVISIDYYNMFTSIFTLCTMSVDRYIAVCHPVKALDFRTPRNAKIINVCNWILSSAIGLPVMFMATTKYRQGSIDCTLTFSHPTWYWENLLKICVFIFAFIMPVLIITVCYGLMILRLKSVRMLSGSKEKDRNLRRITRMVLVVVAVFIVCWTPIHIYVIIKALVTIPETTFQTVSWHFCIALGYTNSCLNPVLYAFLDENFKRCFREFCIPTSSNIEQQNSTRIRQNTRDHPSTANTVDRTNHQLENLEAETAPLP

Structure (SMILES) | A3: inhibition of radioligand binding [1] | A9: inhibition of radioligand binding [2] | A10: inhibition of radioligand binding [3] | A11: inhibition of radioligand binding [4] | A6: inhibition of radioligand binding [5] | A8: inhibition of radioligand binding [6] | A5: inhibition of radioligand binding [7] | A7: inhibition of radioligand binding [8] | A4: inhibition of radioligand binding [9] | A2: inhibition of radioligand binding [10] | A1: inhibition of radioligand binding [11] | A6: inhibition of radioligand binding ([5]; 10 µM) | A5: inhibition of radioligand binding ([7]; 10 µM)
NCCCC(=O)NC1C(OCc2ccc3ccccc3c2)OC(COCc2ccccc2)C(O)C1OCc1ccccc1 (single isomer, unassigned) [compound 468] | − (“−” indicates less than 50% inhibition at 10 μM) | − (“−” indicates less than 50% inhibition at 10 μM) | + (“+” indicates greater than 50% inhibition at 10 μM) | − (“−” indicates less than 50% inhibition at 10 μM) | − (“−” indicates less than 50% inhibition at 10 μM) | + (“+” indicates greater than 50% inhibition at 10 μM) | − (“−” indicates less than 50% inhibition at 10 μM) | + (“+” indicates greater than 50% inhibition at 10 μM) | − (“−” indicates less than 50% inhibition at 10 μM) | − (“−” indicates less than 50% inhibition at 10 μM) | − (“−” indicates less than 50% inhibition at 10 μM) |  | 
NCCCC(=O)NC1C(OCc2ccc3ccccc3c2)OC(COCc2ccccc2)C(O)C1OCc1ccc(Cl)cc1 (single isomer, unassigned) [compound 457] | − (“−” indicates less than 50% inhibition at 10 μM) | − (“−” indicates less than 50% inhibition at 10 μM) | + (“+” indicates greater than 50% inhibition at 10 μM) | − (“−” indicates less than 50% inhibition at 10 μM) |  | + (“+” indicates greater than 50% inhibition at 10 μM) |  | + (“+” indicates greater than 50% inhibition at 10 μM) | − (“−” indicates less than 50% inhibition at 10 μM) | − (“−” indicates less than 50% inhibition at 10 μM) | − (“−” indicates less than 50% inhibition at 10 μM) | − (“−” indicates less than 50% inhibition at 10 μM) | − (“−” indicates less than 50% inhibition at 10 μM)
